Consider 34 molecules from patent US11964960B2 (Cornell University, priority 2018, dated 2024).

The target of this assay is T1, S1P2 (Homo sapiens, UniProt O95136).
T1 construct: Flag; expressed in transfected cells; host or cells: Chinese hamster ovary (CHO) cells, doxycycline-inducible (CHO-S1P2-FL / CHO-S1PR2 FL)
Nature of the assay: GLISA RhoA activation - antagonist assay. In kind it is cell-based. To be noted: CHO-S1P2-FL cells; for inhibition at 1 µM: 1 μM compound; for IC50: 1 hour compound incubation, then for 5 min. How it is done: GLISA RhoA Activation—Antagonist Assay
GLISA assays were performed using RhoA (BK124) activation kit purchased from Cytoskeleton Inc., Denver, CO Doxycycline-inducible Flag-tag S1P2 expressing Chinese hamster ovary (CHO) cells (CHO-S1P2-FL) were seeded in a 6-well plate, 1.5×10^5 cells per well. Cells were stimulated with […] of Doxycycline to induce S1P2 expression in serum free IMDM media with 0.1% BSA/PBS. Following day, cells were stimulated with the compounds described herein (1 nM-10 μM) or 1 μM JTE-013 for 1 hour at 37° C. Following compound incubation, cells were washed with PBS×3 and induced with 100 nM […] for 5 min. […] Protein concentration was examined using GLISA—Precision Red Advanced Protein assay reagent as described in assay manual. Lysates were immobilized on GTP-bound capture plate and GLISA assay was performed based on manufacture recommendations as reported previously.

T1 sequence (O95136 whole entry, species assumed): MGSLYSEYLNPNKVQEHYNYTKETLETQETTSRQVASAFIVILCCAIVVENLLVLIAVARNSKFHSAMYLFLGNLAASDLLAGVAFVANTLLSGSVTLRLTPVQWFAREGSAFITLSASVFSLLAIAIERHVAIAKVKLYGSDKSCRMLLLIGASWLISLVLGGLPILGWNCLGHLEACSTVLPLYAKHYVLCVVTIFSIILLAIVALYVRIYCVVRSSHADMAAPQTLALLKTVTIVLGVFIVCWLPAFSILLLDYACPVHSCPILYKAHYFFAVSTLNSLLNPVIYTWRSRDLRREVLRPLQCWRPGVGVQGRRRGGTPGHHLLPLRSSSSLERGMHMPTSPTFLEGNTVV

Molecule `Cc1cc(C(=O)C(C)n2cc(Br)ccc2=O)c(C)n1Cc1cccc(C(F)F)c1` (stereo not shown) [Compound 21, 5-bromo-1-(1-(1-(3-(difluoromethyl)benzyl)-2,5-dimethyl-1H-pyrrol-3-yl)-1-oxopropan-2-yl)pyridin-2(1H)-one] returned an inhibition at 1 µM of 42%. In turn, `CC#Cc1ccc(=O)n(CC(=O)c2cc(C)n(Cc3ccccc3)c2C)c1` [Compound 26, 1-(2-(1-benzyl-2,5-dimethyl-1H-pyrrol-3-yl)-2-oxoethyl)-5-(prop-1-yn-1-yl)pyridin-2(1H)-one] registered an inhibition at 1 µM of 55% and an IC50 of 194 nM. In the case of `Cc1cc(C(=O)C(C)n2cc(Br)ccc2=O)c(C)n1Cc1ccccc1` (stereo not shown) [Compound 4, 1-(1-(1-benzyl-2,5-dimethyl-1H-pyrrol-3-yl)-1-oxopropan-2-yl)-5-bromopyridin-2(1H)-one], testing at 1 µM gave an inhibition of 86% and the 50% inhibitory concentration (IC50) worked out at 26 nM.

Consider `Cc1c(C(=O)Cn2cc(Br)ncc2=O)cnn1Cc1ccccc1` [Example 70, 1-(2-(1-Benzyl-5-methyl-1H-pyrazol-4-yl)-2-oxoethyl)-5-bromopyrazin-2(1H)-one], for which the 50% inhibitory concentration (IC50) was 181 nM.

The molecule `Cc1c(C(=O)Cn2cc(C#N)cc(C#N)c2=O)cnn1Cc1ccccc1` [Example 69, 1-(2-(1-Benzyl-5-methyl-1H-pyrazol-4-yl)-2-oxoethyl)-2-oxo-1,2-dihydropyridine-3,5-dicarbonitrile] returned an IC50 of 50 nM. Molecule `Cc1c(C(=O)Cn2nc(Br)ccc2=O)cnn1Cc1ccccc1` [Example 55, 2-(2-(1-Benzyl-5-methyl-1H-pyrazol-4-yl)-2-oxoethyl)-6-bromopyridazin-3(2H)-one] showed an IC50 of 110 nM. The same measure, in the same setting: in the case of `C=Cc1ccc(=O)n(C(C)C(=O)c2cnn(Cc3ccccc3)c2C)n1` (stereo not shown) [Example 76, 2-(1-(1-Benzyl-5-methyl-1H-pyrazol-4-yl)-1-oxopropan-2-yl)-6-vinylpyridazin-3(2H)-one] it was 130 nM.

`Cc1cc(C(=O)C(C)n2cc(Br)ccc2=O)c(C)n1Cc1ccc(C#N)cc1` (stereo not shown) [Compound 16, 4-((3-(2-(5-bromo-2-oxopyridin-1(2H)-yl)propanoyl)-2,5-dimethyl-1H-pyrrol-1-yl)methyl)benzonitrile]: the inhibition at 1 µM stood at 39%. In turn, `Cc1cc(C(=O)C(C)n2cc(Br)ccc2=O)c(C)n1Cc1cccc(C(=O)O)c1` (stereo not shown) [Compound 23, 3-((3-(2-(5-bromo-2-oxopyridin-1(2H)-yl)propanoyl)-2,5-dimethyl-1H-pyrrol-1-yl)metnyl)benzoic add] gave an inhibition at 1 µM of 69% and an IC50 of 297 nM. The molecule `Cc1cc(C(=O)Cn2cc(Br)ccc2=O)c(C)n1Cc1ccc(F)cc1` [Compound 28, 5-bromo-1-(2-(1-(4-fluorobenzyl)-2,5-dimethyl-1H-pyrrol-3-yl)-2-oxoethyl)pyridin-2(1H)-one] gave an inhibition at 1 µM of 58%. On the same count and under the same terms, in the case of `Cc1cc(C(=O)C(C)n2cc(Br)ccc2=O)c(C)n1CC1CCC1` (stereo not shown) [Example 59, 5-Bromo-1-(1-(1-(cyclobutylmethyl)-2,5-dimethyl-1H-pyrrol-3-yl)-1-oxopropan-2-yl)pyridin-2(1H)-one] it was less than 10%; in that of `Cc1cc(C(=O)C(C)n2cc(Br)ccc2=O)c(C)n1CC1CC1` (stereo not shown) [Example 58, 5-Bromo-1-(1-(1-(cyclopropylmethyl)-2,5-dimethyl-1H-pyrrol-3-yl)-1-oxopropan-2-yl)pyridin-2(1H)-one], less than 10%. Still for that read-out and setting: in the case of `Cc1cc(C(=O)C(C)n2cc(Br)ccc2=O)c(C)n1Cc1ccccc1C#N` (stereo not shown) [Compound 17, 2-((3-(2-(5-bromo-2-oxopyridin-1(2H)-yl)propanoyl)-2,5-dimethyl-1H-pyrrol-1-yl)methyl)benzonitrile] it was 63%; in that of `Cc1cc(C(=O)C(C)n2cc(Br)ccc2=O)c(C)n1Cc1cnn(C)c1` (stereo not shown) [Compound 8, 5-bromo-1-(1-(2,5-dimethyl-1-((1-methyl-1H-pyrazol-4-yl)methyl)-1H-pyrrol-3-yl)-1-oxopropan-2-yl)pyridin-2(1H)-one], 20%. As to `C#Cc1ccc(=O)n(CC(=O)c2nnn(Cc3ccccc3)c2C)c1` [Example 88, 1-(2-(1-Benzyl-5-methyl-1H-1,2,3-triazol-4-yl)-2-oxoethyl)-5-ethynylpyridin-2(1H)-one], it took 72 nM to reach half-maximal inhibition (IC50). This lies in the double-digit nanomolar range. For the molecule `Cc1noc(Cn2c(C)cc(C(=O)C(C)n3cc(Br)ccc3=O)c2C)n1` (stereo not shown) [Compound 6, 5-bromo-1-(1-(2,5-dimethyl-1-((3-methyl-1,2,4-oxadiazol-5-yl)methyl)-1H-pyrrol-3-yl)-1-oxopropan-2-yl)pyridin-2(1H)-one], 1 µM produced 29% inhibition. Regarding `O=C(Cn1cc(Br)ccc1=O)N1CCC(Cc2ccc(F)cc2)C1` (stereo not shown) [Example 66, 5-Bromo-1-(2-(3-(4-fluorobenzyl)pyrrolidin-1-yl)-2-oxoethyl)pyridin-2(1H)-one], the inhibition at 1 µM was less than 10%. On to `Cc1cc(C(=O)C(C)n2cc(Br)ccc2=O)c(C)n1Cc1cccc(S(C)(=O)=O)c1` (stereo not shown) [Compound 14, 5-bromo-1-(1-(2,5-dimethyl-1-(3-(methylsulfonyl)benzyl)-1H-1-pyrrol-3-yl)-1-oxopropan-2-yl)pyridin-2(1H)-one], for which 1 µM produced 35% inhibition. Still for that read-out and setting: in the case of `Cc1cc(C(=O)C(C)n2cc(Br)ccc2=O)c(C)n1Cc1cccnc1` (stereo not shown) [Compound 24, 5-bromo-1-(1-(2,5-dimethyl-1-(pyridin-3-ylmethyl)-1H-pyrrol-3-yl)-1-oxopropan-2-yl)pyridin-2(1H)-one] it was 73%. `Cc1c(C(=O)Cn2cc(Br)c(F)cc2=O)cnn1Cc1ccccc1` [Example 72, 1-(2-(1-Benzyl-5-methyl-1H-pyrazol-4-yl)-2-oxoethyl)-5-bromo-4-fluoropyridin-2(1H)-one]: the IC50 was 91 nM. In other words, the double-digit nanomolar range. `Cc1cc(C(=O)C(C)n2cc(Br)ccc2=O)c(C)n1Cc1ccc(F)cc1` (stereo not shown) [Compound 18, 5-bromo-1-(1-(1-(4-fluorobenzyl)-2,5-dimethyl-1H-pyrrol-3-yl)-1-oxopropan-2-yl)pyridin-2(1H)-one] gave an inhibition at 1 µM of 76%. `Cc1cc(=O)n(CC(=O)c2cc(C)n(Cc3ccccc3)c2C)cc1C#N` [Example 49, 1-(2-(1-Benzyl-2,5-dimethyl-1H-pyrrol-3-yl)-2-oxoethyl)-4-methyl-6-oxo-1,6-dihydropyridine-3-carbonitrile] had an IC50 greater than 10000 nM. For `C=Cc1ccc(=O)n(CC(=O)c2cnn(Cc3ccccc3)c2C(F)(F)F)c1` [Example 82, 1-(2-(1-Benzyl-5-(trifluoromethyl)-1H-pyrazol-4-yl)-2-oxoethyl)-5-vinylpyridin-2(1H)-one], the IC50 was 74 nM.

Molecule `C=Cc1ccc(=O)n(C(C)C(=O)c2cnn(Cc3ccccn3)c2C)c1` (stereo not shown) [Example 79, 1-(1-(5-Methyl-1-(pyridin-2-ylmethyl)-1H-pyrazol-4-yl)-1-oxopropan-2-yl)-5-vinylpyridin-2(1H)-one] displayed an IC50 of 50 nM. Same read-out and setting: in the case of `Cc1cc(C(=O)Cn2cc(Cl)ccc2=O)c(C)n1Cc1ccccc1` [Example 45, 1-(2-(1-Benzyl-2,5-dimethyl-1H-pyrrol-3-yl)-2-oxoethyl)-5-chloropyridin-2(1H)-one] it was greater than 10000 nM; in that of `Cc1cc(C(=O)Cn2c(C)c(C#N)ccc2=O)c(C)n1Cc1ccccc1` [Example 44, 1-(2-(1-Benzyl-2,5-dimethyl-1H-pyrrol-3-yl)-2-oxoethyl)-2-methyl-6-oxo-1,6-dihydropyridine-3-carbonitrile], greater than 10000 nM.

Molecule `C#Cc1ccc(=O)n(C(C)C(=O)c2cnn(Cc3ccc(F)cc3F)c2C)n1` (stereo not shown) [Example 75, 2-(1-(1-(2,4-Difluorobenzyl)-5-methyl-1H-pyrazol-4-yl)-1-oxopropan-2-yl)-6-ethynylpyridazin-3(2H)-one] gave a half-inhibitory concentration (IC50) of 58 nM. Still for that read-out and setting: in the case of `Cc1cc(C(=O)C(Cc2ccccc2)n2cc(C#N)ccc2=O)c(C)n1Cc1ccccc1` (stereo not shown) [Example 51, 1-(1-(1-Benzyl-2,5-dimethyl-1H-pyrrol-3-yl)-1-oxo-3-phenylpropan-2-yl)-6-oxo-1,6-dihydropyridine-3-carbonitrile] it was greater than 10000 nM. The same measure, in the same setting: in the case of `C=Cc1ccc(=O)n(CC(=O)c2c(C)nn(Cc3ccccc3)c2C)c1` [Example 86, 1-(2-(1-Benzyl-3,5-dimethyl-1H-pyrazol-4-yl)-2-oxoethyl)-5-vinylpyridin-2(1H)-one] it was 92 nM. Take `Cc1cc(C(=O)Cn2cc(C#N)ccc2=O)c(C)[nH]1` [Example 47, 1-(2-(2,5-Dimethyl-1H-pyrrol-3-yl)-2-oxoethyl)-6-oxo-1,6-dihydropyridine-3-carbonitrile]: the half-inhibitory concentration (IC50) is greater than 10000 nM. Molecule `Cc1cc(Cn2c(C)cc(C(=O)C(C)n3cc(Br)ccc3=O)c2C)no1` (stereo not shown) [Compound 9, 5-bromo-1-(1-(2,5-dimethyl-1-((5-methylisoxazol-3-yl)methyl)-1H-pyrrol-3-yl)-1-oxopropan-2-yl)pyridin-2(1H)-one] came in with an inhibition at 1 µM of 32%.

Regarding `COc1cccc(Cn2c(C)cc(C(=O)C(C)n3cc(Br)ccc3=O)c2C)c1` (stereo not shown) [Example 60, 5-Bromo-1-(1-(1-(3-methoxybenzyl)-2,5-dimethyl-1H-pyrrol-3-yl)-1-oxopropan-2-yl)pyridin-2(1H)-one], the inhibition at 1 µM is less than 10%. On to `Cc1cc(C(=O)Cn2cc(C#N)ccc2=O)c(C)n1C(C)c1ccccc1` (stereo not shown) [Example 92, 1-(2-(2,5-Dimethyl-1-(1-phenylethyl)-1H-pyrrol-3-yl)-2-oxoethyl)-6-oxo-1,6-dihydropyridine-3-carbonitrile], for which the inhibition at 1 µM is 31%.

With `COc1ccc(=O)n(CC(=O)c2cc(C)n(Cc3ccccc3)c2C)c1` [Example 50, 1-(2-(1-Benzyl-2,5-dimethyl-1H-pyrrol-3-yl)-2-oxoethyl)-5-methoxypyridin-2(1H)-one], the half-inhibitory concentration (IC50) is greater than 10000 nM.

Broadly, the inhibition is the relative decrease from the control value, in per cent. Low values mean little suppression, high ones strong suppression. What is called IC50 is the midpoint of a concentration-inhibition curve.
